From PubChem BioAssay (NCI)
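How tested: cells in 96-well plates exposed to compound for 48 hours at five concentrations. The concentration for 50% growth inhibition is given as GI50. TGI is the concentration that stops growth completely.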

Legend:
Test in all cases: DTP human tumour cell line panel, 48 h
[1] = tested on: OVCAR-3 ovarian
[2] = tested on: U251 CNS
[3] = tested on: DU-145 prostate
[4] = tested on: PC-3 prostate
[5] = tested on: NCI-H23 lung
[6] = tested on: IGROV1 ovarian
[7] = tested on: SK-MEL-5 melanoma
[8] = tested on: SF-268 CNS
[9] = tested on: SF-295 CNS
[10] = tested on: HT29 colon
[11] = tested on: SW-620 colon

Row | SMILES | TGI [1] [µM] | TGI [2] [µM] | TGI [3] [µM] | TGI [4] [µM] | TGI [5] [µM] | TGI [6] [µM] | TGI [7] [µM] | TGI [8] [µM] | TGI [9] [µM] | TGI [10] [µM] | TGI [11] [µM] | GI50 [1] [µM] | GI50 [11] [µM] | GI50 [2] [µM] | GI50 [5] [µM] | GI50 [7] [µM] | GI50 [9] [µM]
1 | Cc1cc(N(CCC#N)CCC#N)ccc1/C(N=Nc1ccc(Cl)cc1)=N\NC(=O)c1ccccc1 | > 100 | > 100 | > 100 | > 100 | > 100 | > 100 | > 100 | > 100 | 77.6 | 47.6 |  |  |  |  |  |  | 
2 | COc1ccc(CNc2nc(NCc3ccc(OC)c(OC)c3)nc(NC3CCCCC3)n2)cc1 | > 100 | > 100 | > 100 | > 100 | 52.2 | > 100 | 7.41 |  | > 100 | > 100 | > 100 |  |  |  |  |  | 
3 | O=C1CCC23CC(C=CC=C12)n1c(=O)n(-c2ccccc2)c(=O)n13 (stereo not given) | > 100 | > 100 |  |  | > 100 | > 100 | > 100 | > 100 | > 100 | > 100 | > 100 |  |  |  |  |  | 
4 | CC1(C)N=C(/C(Cl)=[N+](/[O-])C(=O)c2ccc(F)cc2)C(C)(C)N1O | 31.2 |  | 78.7 | 31.3 | 42.8 | 37 | 30.4 | 33.6 | 78.4 | 41 | 39.2 |  |  |  |  |  | 
5 | CCN(CC)CCC(=O)Nc1ccc2c(c1)C(=O)c1ccc(NC(=O)CCN(CC)CC)cc1C2=O |  | 21.2 |  |  | 23.2 | 12 | 19.8 | 18.9 | 24 | 12.5 | 6.93 |  |  |  |  |  | 
6 | N.N.N.N.O=[N+]([O-])[O-].[Co+3].[N-]=[N+]=[N-].[N-]=[N+]=[N-] | > 100 | > 100 |  |  | > 100 | > 100 | > 100 | > 100 | > 100 | > 100 | > 100 |  |  |  |  |  | 
7 | CC(=O)NC1=C(NCCC(C)C)C(=O)c2ccccc2C1=O | > 50 | > 50 |  |  | > 50 | > 50 | > 50 | > 50 | > 50 | > 50 | > 50 |  |  |  |  |  | 
8 | O=C([O-])CC(=O)[O-].O=C([O-])CC(=O)[O-].[K+].[Pd+2] | > 100 | > 100 |  |  | > 100 |  | > 100 |  | > 100 |  | > 100 | > 100 | > 100 | > 100 | > 100 | > 100 | > 100
9 | Cc1cccc2c(=O)cc(-c3ccccc3)[nH]c12 | > 100 | > 100 |  |  | > 100 | > 100 | 78.4 | > 100 | 18.7 | > 100 | > 100 |  |  |  |  |  | 
10 | COc1cc([C@@H]2c3cc4c(cc3[C@@H](Nc3ccc([N+](=O)[O-])cc3C(=O)c3ccccc3)[C@H]3COC(=O)[C@H]23)OCO4)cc(OC)c1OC | > 100 | > 100 | > 100 | > 100 | > 28.6 | > 100 |  | > 100 | > 100 | > 100 | > 100 |  |  |  |  |  | 
11 | Cc1cn(C2CC(n3cc(Cn4cc(I)c(=O)[nH]c4=O)nn3)C(CO)O2)c(=O)[nH]c1=O (stereo not given) | > 100 | > 100 | > 100 | > 100 | > 100 |  | > 100 | > 100 | > 100 |  | > 100 |  |  |  |  |  | 
